In patent US20080039455A1, “PYRAZOLOPYRIMIDINES AND SALTS THEREOF, PHARMACEUTICAL COMPOSITIONS COMPRISING SAME, METHODS OF PREPARING SAME AND USES OF SAME” (priority 2006, published 2008) one finds IC50 data, which are given here for 30 molecules.

Where a name gives a salt, the structure may show the parent alone.

The assay has as its target T1, human recombinant ALK1 (GST fused to ALK1 intracellular domain [His142-Gln503]) (Homo sapiens, UniProt P37023).
T1 construct: GST fused to ALK1 intracellular domain [His142-Gln503]; made in house
T1 sequence (P37023 142-503): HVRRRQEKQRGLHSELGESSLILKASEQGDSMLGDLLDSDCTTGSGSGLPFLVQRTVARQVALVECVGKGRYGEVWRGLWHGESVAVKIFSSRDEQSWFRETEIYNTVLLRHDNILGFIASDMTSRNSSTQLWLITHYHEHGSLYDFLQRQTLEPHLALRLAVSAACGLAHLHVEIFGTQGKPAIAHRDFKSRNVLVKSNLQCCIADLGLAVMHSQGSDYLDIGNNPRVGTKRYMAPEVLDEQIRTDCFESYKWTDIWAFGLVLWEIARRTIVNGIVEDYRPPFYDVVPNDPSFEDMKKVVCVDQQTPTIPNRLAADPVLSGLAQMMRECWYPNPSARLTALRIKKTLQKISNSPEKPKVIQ
The assay is described as follows: ALK1-Kinase Flashplate-Assay. The assay is classed as biochemical. The note with it: 0.5 μM ATP, biotinylated α-casein substrate; read-out: Assay 1 (ALK1-Kinase Flashplate-Assay IC50 class). The method in brief:
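Radiometric Flashplate assay at 20 °C: GST-ALK1 intracellular domain (5 ng/well) with 1 μM biotinylated bovine α-casein, 0.5 μM ATP plus [γ-33P]ATP in Tris pH 8.0, 1 mM MnCl2, 1% or 5% DMSO, 60 min. Normalised to no-inhibitor (0%) and 10 mM EDTA (100%); IC50 by 4-parameter fit.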

Broadly, the IC50 is the midpoint of a concentration-inhibition curve. As to `Clc1cccc(-c2cnn3ccc(NCc4ccncc4)nc23)c1` [Example 395, [3-(3-Chloro-phenyl)-pyrazolo[1,5-a]pyrimidin-5-yl]-pyridin-4-ylmethyl-amine], the IC50 was < 1000 nM.
For `FC(F)(F)c1cccc(-c2cnn3ccc(NCc4ccncc4)nc23)c1` [Example 397, Pyridin-4-ylmethyl-[3-(3-trifluoromethyl-phenyl)-pyrazolo[1,5-a]pyrimidin-5-yl]-amine], the IC50 was 1000 to 10000 nM.
As to `Fc1ccc(-c2cnn3ccc(NCc4ccncc4)nc23)cc1` [Example 398, [3-(4-Fluoro-phenyl)-pyrazolo[1,5-a]pyrimidin-5-yl]-pyridin-4-ylmethyl-amine], the IC50 is < 1000 nM.
Regarding `Nc1ccc(C(=O)Nc2ccc(Nc3ccn4ncc(-c5ccc(F)cc5)c4n3)cc2)cc1` [Example 400, 4-Amino-N-{4-[3-(4-fluoro-phenyl)-pyrazolo[1,5-a]pyrimidin-5-ylamino]-phenyl}-benzamide], the IC50 was 1000 to 10000 nM.
The figure for `OC1CCC(Nc2ccn3ncc(-c4ccc(F)cc4)c3n2)CC1` (stereo not drawn) [Example 401, 4-[3-(4-Fluoro-phenyl)-pyrazolo[1,5-a]pyrimidin-5-ylamino]-cyclohexanol] is 1000 to 10000 nM; for `Clc1cccc(-c2cnn3ccc(NCc4cccnc4)nc23)c1` [Example 402, [3-(3-Chloro-phenyl)-pyrazolo[1,5-a]pyrimidin-5-yl]-pyridin-3-ylmethyl-amine] it is 1000 to 10000 nM; for `Fc1cccc(-c2cnn3ccc(NCc4cccnc4)nc23)c1` [Example 405, [3-(3-Fluoro-phenyl)-pyrazolo[1,5-a]pyrimidin-5-yl]-pyridin-3-ylmethyl-amine] it is 1000 to 10000 nM.
`Fc1ccccc1-c1cnn2ccc(NCc3cccnc3)nc12` [Example 408, [3-(2-Fluoro-phenyl)-pyrazolo[1,5-a]pyrimidin-5-yl]-pyridin-3-ylmethyl-amine]: the IC50 lay in the range of 1000 to 10000 nM.
As to `c1ccc2c(-c3cnn4ccc(Nc5ccc(N6CCOCC6)cc5)nc34)cccc2c1` [Example 412, (4-Morpholin-4-yl-phenyl)-(3-naphthalen-1-yl-pyrazolo[1,5-a]pyrimidin-5-yl)-amine], the IC50 was in the range of 1000 to 10000 nM.
In the case of `COc1cc(-c2cnn3ccc(NCc4ccncc4)nc23)cc(OC)c1OC` [Example 418, Pyridin-4-ylmethyl-[3-(3,4,5-trimethoxy-phenyl)-pyrazolo[1,5-a]pyrimidin-5-yl]-amine], the IC50 was < 1000 nM.
In the case of `COc1cc(-c2cnn3ccc(Nc4cc(OC)c(OC)c(OC)c4)nc23)ccc1O` [Example 424, 2-Methoxy-4-[5-(3,4,5-trimethoxy-phenylamino)-pyrazolo[1,5-a]pyrimidin-3-yl]-phenol], the IC50 fell in the range of 1000 to 10000 nM.
As to `COc1ccc(-c2cnn3ccc(Nc4ccc(OC)nc4)nc23)cc1` [Example 425, [3-(4-Methoxy-phenyl)-pyrazolo[1,5-a]pyrimidin-5-yl]-(6-methoxy-pyridin-3-yl)-amine], the IC50 lay in the range of 1000 to 10000 nM.
The value for `Cc1ccc(Nc2ccn3ncc(-c4cccc(CO)c4)c3n2)cc1NS(C)(=O)=O` [Example 431, N-{5-[3-(3-Hydroxymethyl-phenyl)-pyrazolo[1,5-a]pyrimidin-5-ylamino]-2-methyl-phenyl}-methanesulfonamide] was 1000 to 10000 nM; that for `COc1ccc(-c2cnn3ccc(Nc4ccc(O)cc4)nc23)c(OC)c1` [Example 435, 4-[3-(2,4-Dimethoxy-phenyl)-pyrazolo[1,5-a]pyrimidin-5-ylamino]-phenol] was 1000 to 10000 nM; that for `COc1ccc(Nc2ccn3ncc(-c4cccc(C(C)=O)c4)c3n2)cn1` [Example 437, 1-{3-[5-(6-Methoxy-pyridin-3-ylamino)-pyrazolo[1,5-a]pyrimidin-3-yl]-phenyl}-ethanone] was 1000 to 10000 nM.
For `COc1cccc(-c2cnn3ccc(Nc4cccc(Cl)c4)nc23)c1` [Example 444, (3-Chloro-phenyl)-[3-(3-methoxy-phenyl)-pyrazolo[1,5-a]pyrimidin-5-yl]-amine], the IC50 lay within 1000 to 10000 nM.
With `CS(=O)(=O)Nc1cccc(-c2cnn3ccc(Nc4ccc(N5CCOCC5)cc4)nc23)c1` [Example 447, N-{3-[5-(4-Morpholin-4-yl-phenylamino)-pyrazolo[1,5-a]pyrimidin-3-yl]-phenyl}-methanesulfonamide], the concentration for half-maximal inhibition (IC50) was < 1000 nM.
Consider `CC(=O)Nc1cccc(-c2cnn3ccc(Nc4cccc(Cl)c4)nc23)c1` [Example 453, N-{3-[5-(3-Chloro-phenylamino)-pyrazolo[1,5-a]pyrimidin-3-yl]-phenyl}-acetamide], for which the half-inhibitory concentration (IC50) lay in the range of 1000 to 10000 nM.
The value for `COc1ccc(-c2cnn3ccc(Nc4cc(OC)c(OC)c(OC)c4)nc23)cc1OC` [Example 462, [3-(3,4-Dimethoxy-phenyl)-pyrazolo[1,5-a]pyrimidin-5-yl]-(3,4,5-trimethoxy-phenyl)-amine] was 1000 to 10000 nM; that for `COc1cc(Nc2ccn3ncc(-c4ccc(O)cc4)c3n2)cc(OC)c1OC` [Example 463, 4-[5-(3,4,5-Trimethoxy-phenylamino)-pyrazolo[1,5-a]pyrimidin-3-yl]-phenol] was 1000 to 10000 nM.
For the molecule `COc1ccc(Nc2ccn3ncc(-c4ccsc4)c3n2)cn1` [Example 464, (6-Methoxy-pyridin-3-yl)-(3-thiophen-3-yl-pyrazolo[1,5-a]pyrimidin-5-yl)-amine], the IC50 was 1000 to 10000 nM.
`c1cc(-c2cnn3ccc(Nc4ccc(N5CCOCC5)cc4)nc23)cs1` [Example 467, (4-Morpholin-4-yl-phenyl)-(3-thiophen-3-yl-pyrazolo[1,5-a]pyrimidin-5-yl)-amine]: the IC50 was 1000 to 10000 nM.
As to `c1ccc(Oc2ccc(Nc3ccn4ncc(-c5ccncc5)c4n3)cc2)cc1` [Example 468, (4-Phenoxy-phenyl)-(3-pyridin-4-yl-pyrazolo[1,5-a]pyrimidin-5-yl)-amine], the IC50 is 1000 to 10000 nM.
On to `c1cc(N2CCOCC2)ccc1Nc1ccn2ncc(-c3ccc4c(c3)OCO4)c2n1` [Example 472, (3-Benzo[1,3]dioxol-5-yl-pyrazolo[1,5-a]pyrimidin-5-yl)-(4-morpholin-4-yl-phenyl)-amine], for which the IC50 lay within 1000 to 10000 nM.
As to `COc1cc(-c2cnn3ccc(NC4CCC(O)CC4)nc23)cc(OC)c1OC` (stereo not drawn) [Example 474, 4-[3-(3,4,5-Trimethoxy-phenyl)-pyrazolo[1,5-a]pyrimidin-5-ylamino]-cyclohexanol], the half-inhibitory concentration (IC50) is < 1000 nM.
The figure for `COc1ccc(-c2cnn3ccc(Nc4ccccc4)nc23)cc1OC` [Example 478, [3-(3,4-Dimethoxy-phenyl)-pyrazolo[1,5-a]pyrimidin-5-yl]-phenyl-amine] is 1000 to 10000 nM.
For `CCN(CC)CCCNc1ccn2ncc(-c3cccc(Cl)c3)c2n1` [Example 486, N′-[3-(3-chloro-phenyl)-pyrazolo[1,5-a]pyrimidin-5-yl]-N,N-diethyl-propane-1,3-diamine], the IC50 was 1000 to 10000 nM.
Consider `CCN(CC)CCCNc1ccn2ncc(-c3ccc(C)c(Cl)c3)c2n1` [Example 492, N′-[3-(3-Chloro-4-methyl-phenyl)-pyrazolo[1,5-a]pyrimidin-5-yl]-N,N-diethyl-propane-1,3-diamine], for which the IC50 was in the range of 1000 to 10000 nM.
Take `c1csc(-c2cnn3ccc(NC4CCCCC4)nc23)c1` [Example 494, Cyclohexyl-(3-thiophen-2-yl-pyrazolo[1,5-a]pyrimidin-5-yl)-amine]: the IC50 was 1000 to 10000 nM.
`c1csc(-c2cnn3ccc(NC4CCCNC4)nc23)c1` (stereo not drawn) [Example 496, Piperidin-3-yl-(3-thiophen-2-yl-pyrazolo[1,5-a]pyrimidin-5-yl)-amine mono TFA salt]: the IC50 was 1000 to 10000 nM.
